In patent publication US12714106B2 (Bayer Aktiengesellschaft, priority 2020, dated 2026):

Key:
Format in all cases: in vivo
[1] = tested on: grass and broadleaf weeds; assay: Comparative testing of crystalline (I), (Ia), (Ib), summary of tables 3 to 6; settings: see tables 3 to 6
Method: (§1) Seeds of grass and broadleaf weeds were sown in pots (diameter: 7 cm) filled with a sandy loam soil. Following germination the plants were grown under optimal conditions up to a growth stage of BBCH 11 to 14 depending on species.
(§2) The applications were performed by post emergence treatments on the planted pots using a spray volume of 300 L water per hectare. The herbicides were applied alone and in combination as described.
(§3) The trial was conducted in the greenhouse ensuring optimal growing conditions.
(§4) The herbicidal effects were assessed 21 days following application by visual ratings comparing treated and untreated plants (0%=no effect to 100%=complete die-off).
(§5) The compounds of the formula (Ia), (Ib) and (I) were formulated as WP (wettable powder) formulation.
(§6) The synergistic herbicidal activity was calculated using Colby's formula (cf. S. R. Colby; Weeds 15 (1967), 20-22): […]

[2] = tested on: ABUTH (Abutilon theophrasti); assay: Post-emergence greenhouse herbicide test, visual rating; settings: for ABUTH Expected: Colby formula; for ABUTH synerg.: observed minus expected; for ABUTH Observed: post-emergence, 21 days after application
Method: as §1, §2, §3, §4, §5
(§7) • BBCH=the BBCH code provides information about the morphological development stage of a plant. Officially, the abbreviation denotes the Biologische Bundesanstalt, Bundessortenamt and Chemische Industrie [Federal Biological Institute for Agriculture and Forestry, Federal Office for Crop Plant Varieties and Chemical Industry]. The range of BBCH 00-10 denotes the germination stages of the seeds until surface penetration. The range of BBCH 11-25 denotes the leaf development stages until stocking (corresponding to the number of tillers or side-shoots). In the Trials, the Following Biotypes of Broad-Leaved Weeds and Weed Grasses were Used: • ALOMY—sensitive (Alopecurus myosuroides) sensitive to customary herbicidally active compounds. • ALOMY_R (resistant) (Alopecurus myosuroides) resistant to herbicidally active compounds of the HRAC groups A and B; population mixture of field origin having increased metabolic resistance (IMR) and some target site resistance (TSR). • LOLRI—sensitive (Lolium rigidum) sensitive to customary herbicidally active compounds. • LOLRI_R (resistant) (Lolium rigidum) resistant to herbicidally active compounds of the HRAC groups A and B; population mixture of field origin having increased metabolic resistance (IMR) and some target site resistance (TSR). • AMAPA_R (resistant) (Amaranthus palmeri) resistant to herbicidally active compounds of the HRAC groups A and B; population mixture of field origin having increased metabolic resistance (IMR) and some target site resistance (TSR). • CHRVI (Chloris virgate) feather finger grass • KCHSC (Kochia scoparia) Mexican burning bush • MATIN (Matricaria inodora) false chamomile • POLCO (Polygonum convolvulus) black knotweed • ABUTH (Abutilon theophrasti) china jute • AMAPA (Amaranthus palmeri) palmer amaranth • BIDPI (Bidens pilosa) common blackjack • CHEAL (Chenopodium album) common lambsquarters • EPHHL (Euphorbia heterophylla) wild spurge • XANST (Xanthium strumarium) large cocklebur • EMEAU (Emex australis)—Cathead • GALAP (Gallium aparine)—Cleaver
as §6

BID PI (Bidens pilosa) = assay: as above; settings: for BID PI Observed: post-emergence, 21 days after application
Method: as §1, §2, §3, §4, §5, §7, §6

[3] = tested on: LOLRI - sensitive (Lolium rigidum); assay: as above; settings: for LOLRI Expected: Colby formula; for LOLRI Synergism: observed minus expected; for LOLRI Observed: post-emergence, 21 days after application
Method: as §1, §2, §3, §4, §5, §7, §6

[4] = tested on: POLCO (Polygonum convolvulus); assay: as above; settings: 12.5 g/ha; for POLCO Observed: post-emergence, 21 days after application
Method: as §1, §2, §3, §4, §5, §7, §6

KCHSC (Kochia scoparia) = assay: as above; settings: 12.5 g/ha; for KCHSC Observed: post-emergence, 21 days after application
Method: as §1, §2, §3, §4, §5, §7, §6

[5] = tested on: CHEAL (Chenopodium album); assay: as above; settings: for CHEAL Observed: post-emergence, 21 days after application
Method: as §1, §2, §3, §4, §5, §7, §6

GALAP (Gallium aparine) = assay: as above; settings: 50 g/ha; for GALAP Observed: post-emergence, 21 days after application
Method: as §1, §2, §3, §4, §5, §7, §6

[6] = tested on: LOLRI_R (resistant) (Lolium rigidum); assay: as above; settings: for LOLRI_R Expected: Colby formula; for LOLRI_R Synergism: observed minus expected; for LOLRI_R Observed: post-emergence, 21 days after application
Method: as §1, §2, §3, §4, §5, §7, §6

[7] = tested on: XANST (Xanthium strumarium); assay: as above; settings: for XANST Expected: Colby formula; for XANST synerg.: observed minus expected; for XANST Observed: post-emergence, 21 days after application
Method: as §1, §2, §3, §4, §5, §7, §6

EMEAU (Emex australis) = assay: as above; settings: for EMEAU Observed: post-emergence, 21 days after application
Method: as §1, §2, §3, §4, §5, §7, §6

[8] = tested on: AMAPA-R (resistant) (Amaranthus palmeri); assay: as above; settings: for AMAPA-R Observed: post-emergence, 21 days after application
Method: as §1, §2, §3, §4, §5, §7, §6

[9] = tested on: MATIN (Matricaria inodora); assay: as above; settings: for MATIN Expected: Colby formula; for MATIN Synergism: observed minus expected; for MATIN Observed: post-emergence, 21 days after application
Method: as §1, §2, §3, §4, §5, §7, §6

[10] = tested on: EPHHL (Euphorbia heterophylla); assay: as above; settings: for EPHHL Expected: Colby formula; for EPHHL synerg.: observed minus expected; for EPHHL Observed: post-emergence, 21 days after application
Method: as §1, §2, §3, §4, §5, §7, §6

CHRVI (Chloris virgate) = assay: as above; settings: 12.5 g/ha; for CHRVI Observed: post-emergence, 21 days after application
Method: as §1, §2, §3, §4, §5, §7, §6

[11] = 25 g/ha (Ia) + 25 g/ha (Ib), Colby formula
[12] = 25 g/ha (Ia) + 25 g/ha (Ib), observed minus expected

C=C[C@]1(C(=O)N[C@H]2CO[C@@H](C(=O)OC)C2)CC(c2cc(F)cc(F)c2)=NO1 (relative stereo) [(I), methyl(2R*,4R*)-4-[[(5S)-3-(3,5-difluorophenyl)-5-vinyl-4H-isoxazole-5-carbonyl]amino]tetrahydrofuran-2-carboxylate]
herbicidal activity compared with the other crystalline forms ([1]; (I) vs (Ia), (Ia) vs (Ib)): superior in herbicidal activity | synergistic effect of the physical mixture of (Ia) and (Ib) [1]: synergistic effect | ABUTH Expected ([2]; 25 g/ha (Ia) + 25 g/ha (Ib)): 51% | ABUTH synerg. ([2]; 25 g/ha (Ia) + 25 g/ha (Ib)): 25% | ABUTH Observed ([2]; 25 g/ha (Ia) + 25 g/ha (Ib)): 75% | ABUTH Expected ([2]; 50 g/ha (Ia) + 50 g/ha (Ib)): 68% | ABUTH synerg. ([2]; 50 g/ha (Ia) + 50 g/ha (Ib)): 7% | ABUTH Observed ([2]; 50 g/ha (Ia) + 50 g/ha (Ib)): 75% | BID PI Expected (BID PI (Bidens pilosa); [11]): 37% | BID PI synerg. (BID PI (Bidens pilosa); [12]): 28% | BID PI Observed (BID PI (Bidens pilosa); 25 g/ha (Ia) + 25 g/ha (Ib)): 65% | LOLRI Expected ([3]; 6.25 g/ha): 20% | LOLRI Synergism ([3]; 6.25 g/ha): 55% | LOLRI Observed ([3]; 6.25 g/ha): 75% | LOLRI Expected ([3]; 12.5 g/ha): 90% | LOLRI Synergism ([3]; 12.5 g/ha): 5% | LOLRI Observed ([3]; 12.5 g/ha): 95% | POLCO Expected ([4]; Colby formula): 91% | POLCO Synergism ([4]; observed minus expected): 4% | POLCO Observed [4]: 95% | KCHSC Expected (KCHSC (Kochia scoparia); Colby formula): 82% | KCHSC Synergism (KCHSC (Kochia scoparia); observed minus expected): 13% | KCHSC Observed (KCHSC (Kochia scoparia)): 95% | CHEAL Expected [5, 11]: 76% | CHEAL synerg. [5, 12]: 19% | CHEAL Observed ([5]; 25 g/ha (Ia) + 25 g/ha (Ib)): 95% | GALAP Expected (GALAP (Gallium aparine); Colby formula): 84% | GALAP Synergism (GALAP (Gallium aparine); observed minus expected): 6% | GALAP Observed (GALAP (Gallium aparine)): 90% | LOLRI_R Expected ([6]; 6.25 g/ha): 15% | LOLRI_R Synergism ([6]; 6.25 g/ha): 15% | LOLRI_R Observed ([6]; 6.25 g/ha): 30% | LOLRI_R Expected ([6]; 12.5 g/ha): 20% | LOLRI_R Synergism ([6]; 12.5 g/ha): 20% | LOLRI_R Observed ([6]; 12.5 g/ha): 40% | LOLRI_R Expected ([6]; 25 g/ha): 30% | LOLRI_R Synergism ([6]; 25 g/ha): 10% | LOLRI_R Observed ([6]; 25 g/ha): 40% | XANST Expected ([7]; 25 g/ha (Ia) + 25 g/ha (Ib)): 0% | XANST synerg. ([7]; 25 g/ha (Ia) + 25 g/ha (Ib)): 35% | XANST Observed ([7]; 25 g/ha (Ia) + 25 g/ha (Ib)): 35% | XANST Expected ([7]; 50 g/ha (Ia) + 50 g/ha (Ib)): 28% | XANST synerg. ([7]; 50 g/ha (Ia) + 50 g/ha (Ib)): 7% | XANST Observed ([7]; 50 g/ha (Ia) + 50 g/ha (Ib)): 35% | XANST Expected ([7]; 100 g/ha (Ia) + 100 g/ha (Ib)): 36% | XANST synerg. ([7]; 100 g/ha (Ia) + 100 g/ha (Ib)): 29% | XANST Observed ([7]; 100 g/ha (Ia) + 100 g/ha (Ib)): 65% | EMEAU Expected (EMEAU (Emex australis); 12.5 g/ha (row as printed), Colby formula): 89% | EMEAU Synergism (EMEAU (Emex australis); 12.5 g/ha (row as printed), observed minus expected): 8% | EMEAU Observed (EMEAU (Emex australis); 12.5 g/ha (row as printed)): 97% | AMAPA-R Expected [8, 11]: 51% | AMAPA-R synerg. [8, 12]: 14% | AMAPA-R Observed ([8]; 25 g/ha (Ia) + 25 g/ha (Ib)): 65% | MATIN Expected ([9]; 12.5 g/ha): 0% | MATIN Synergism ([9]; 12.5 g/ha): 15% | MATIN Observed ([9]; 12.5 g/ha): 15% | MATIN Expected ([9]; 25 g/ha): 0% | MATIN Synergism ([9]; 25 g/ha): 15% | MATIN Observed ([9]; 25 g/ha): 15% | MATIN Expected ([9]; 50 g/ha): 0% | MATIN Synergism ([9]; 50 g/ha): 20% | MATIN Observed ([9]; 50 g/ha): 20% | EPHHL Expected ([10]; 25 g/ha (Ia) + 25 g/ha (Ib)): 55% | EPHHL synerg. ([10]; 25 g/ha (Ia) + 25 g/ha (Ib)): 11% | EPHHL Observed ([10]; 25 g/ha (Ia) + 25 g/ha (Ib)): 65% | EPHHL Expected ([10]; 50 g/ha (Ia) + 50 g/ha (Ib)): 58% | EPHHL synerg. ([10]; 50 g/ha (Ia) + 50 g/ha (Ib)): 12% | EPHHL Observed ([10]; 50 g/ha (Ia) + 50 g/ha (Ib)): 70% | CHRVI Expected (CHRVI (Chloris virgate); Colby formula): 48% | CHRVI Synergism (CHRVI (Chloris virgate); observed minus expected): 47% | CHRVI Observed (CHRVI (Chloris virgate)): 95%

C=C[C@]1(C(=O)N[C@@H]2CO[C@H](C(=O)OC)C2)CC(c2cc(F)cc(F)c2)=NO1 [(Ib), methyl(2S,4S)-4-[[(5S)-3-(3,5-difluorophenyl)-5-vinyl-4H-isoxazole-5-carbonyl]amino]-tetrahydrofuran-2-carboxylate]
ABUTH Observed ([2]; 25 g/ha single isomer): 10% | ABUTH Observed ([2]; 50 g/ha single isomer): 20% | BID PI Observed (BID PI (Bidens pilosa); 25 g/ha single isomer): 10% | LOLRI Observed ([3]; 6.25 g/ha): 0% | LOLRI Observed ([3]; 12.5 g/ha): 0% | POLCO Observed [4]: 40% | KCHSC Observed (KCHSC (Kochia scoparia)): 40% | CHEAL Observed ([5]; 25 g/ha single isomer): 20% | CHEAL Observed ([5]; 50 g/ha single isomer): 60% | GALAP Observed (GALAP (Gallium aparine)): 35% | LOLRI_R Observed ([6]; 6.25 g/ha): 0% | LOLRI_R Observed ([6]; 12.5 g/ha): 0% | LOLRI_R Observed ([6]; 25 g/ha): 0% | XANST Observed ([7]; 25 g/ha single isomer): 0% | XANST Observed ([7]; 50 g/ha single isomer): 10% | XANST Observed ([7]; 100 g/ha single isomer): 20% | EMEAU Observed (EMEAU (Emex australis); 50 g/ha): 45% | AMAPA-R Observed ([8]; 25 g/ha single isomer): 25% | MATIN Observed ([9]; 12.5 g/ha): 0% | MATIN Observed ([9]; 25 g/ha): 0% | MATIN Observed ([9]; 50 g/ha): 0% | EPHHL Observed ([10]; 25 g/ha single isomer): 35% | EPHHL Observed ([10]; 50 g/ha single isomer): 35% | CHRVI Observed (CHRVI (Chloris virgate)): 20%
